{"source": "patent US20220064604A1", "about": "“SYSTEMIC SCLEROSIS DISEASE MODEL AND USE THEREOF” (YiPSCELL Inc., priority 2018, published 2022)", "key": {"[1]": {"system": "fibroblasts derived from the induced pluripotent stem cells", "assay": "Cell proliferation of iPSC-derived fibroblasts, Cell Counting Kit-8 (FDA-approved drug screening)", "format": "cell-based, human", "conditions": "absorbance at 450 nm", "procedure": "For cell proliferation, absorbance was measured at 450 nm by using the Cell Counting Kit-8 (Dojindo).\nThe plated cells were treated with about 800 FDA-approved drugs to screen for drugs that reduce the proliferation (FIG. 6A). For cell proliferation, absorbance was measured at 450 nm by using the Cell Counting Kit-8 (Dojindo) (FIG. 6B)."}, "[2]": {"system": "ACTA2 and COL1A1", "assay": "Fibrosis marker gene expression (qRT-PCR) in SSc iPSC-derived fibroblasts", "format": "cell-based, human", "conditions": "5 μM; SSc patient iPSC-derived fibroblasts; vs untreated", "procedure": "In order to verify the fibrosis model of the fibroblasts derived from the induced pluripotent stem cells of patients with systemic sclerosis formed in Example 3 above, 2.5×10^5 fibroblasts were plated on a 6-well plate, and maintained and expanded for 1 day. One day later, pirfenidone and nintedanib were treated at a concentration of 5 μM. The total RNA was extracted using Trizol, and cDNA was synthesized using the Revert Aid™ First Strand cDNA Synthesis kit. The qRT-PCR was performed on the synthesized cDNA using LightCycle 480 SYBR Green. The primers used are presented in [Table 3]. All of the experiments were repeated 3 times, and the threshold of the average cycle was used to calculate gene expression for averaging GAPDH as an internal control."}, "[3]": {"system": "total collagen in iPSC-F", "assay": "Total collagen expression, hydroxyproline assay, in iPSC-derived fibroblasts", "format": "cell-based, human", "conditions": "for expression of the total collagen: 5 μM, SSc patient iPSC-derived fibroblasts, vs untreated", "procedure": "(§1) The cells or cell culture media were harvested, mixed with hydrochloric acid at a ratio of 1:1, and cultured at 120° C. for 3 hours. After culture, 5 mg of activated charcoal was added, followed by centrifugation at 13,000×g for 5 minutes to separate only the supernatant. The harvested supernatant was transferred to a 96-well plate and dried completely at 60° C. The Chloramine T/Oxidation Buffer mixture was added to the well, and it was cultured for 5 minutes at room temperature. After adding the diluted DMAB Reagent and incubating at 60° C. for 90 minutes, absorbance at 560 nm was measured.\nas §1, with “For collagen expression, the hydroxyproline assay kit (Sigma) was used. The cells” for “The cells”, “1:1, and incubated at 120°” for “1:1, and cultured at 120°”, “hours. After incubation, 5 mg” for “hours. After culture, 5 mg”, “it was incubated for 5” for “it was cultured for 5”\nFor collagen expression, the hydroxyproline assay kit (Sigma) was used. The cells or cell culture media were harvested, mixed with hydrochloric acid at a ratio of 1:1, and incubated at 120° C. for 3 hours. After incubation, 5 mg of activated charcoal was added, followed by centrifugation at 13,000×g for 5 minutes to separate only the supernatant. […] After adding the diluted DMAB Reagent and incubating at 60° C. for 90 minutes, absorbance at 560 nm was measured.\nAfter 1 day, pirfenidone and nintedanib, which are drugs approved as anti-fibrotic drugs, were treated at a concentration of 5 μM. Collagen expression was measured using the hydroxyproline assay kit (Sigma). […] After adding the diluted DMAB Reagent and incubating at 60° C. for 90 minutes, absorbance was measured at 560 nm to measure the total amount of collagen."}, "[4]": {"system": "bleomycin mouse model", "assay": "Thickness of skin tissue in bleomycin model (histology)", "format": "in vivo", "procedure": "(§2) A systemic sclerosis model was established by dissolving Bleocin (Dong-A ST, 15 mg) in PBS and injecting it daily into the nape of mice. Raloxifene and bazedoxifene were injected subcutaneously for 21 days from 3 days after the injection of Bleocin (FIG. 8A).\nIn order to verify the antifibrotic efficacy of raloxifene in the bleomycin model established in Example 8-1 above, the skin tissue was harvested and paraffin blocks were prepared. The harvested skin tissue was fixed in 4% formaldehyde. The tissue was maintained in the running water for a day to remove the remaining fixative. Dehydration was carried out sequentially while increasing the concentration of an ethanol solution. After dehydration, a transparent process was performed with xylene, followed by paraffin penetration. The next day, the tissue was fixed to a paraffin block, and a tissue section was obtained using a microtome. The slide was dried at 60° C. for 1 hour. After the slide was deparaffinized with xylene, it was rehydrated while decreasing the concentration of the ethanol solution and washed with tap water, and staining was performed.\nFor hematoxylin and eosin (H&E) staining, sections were incubated in the Harris hematoxylin solution for 10 minutes. The slide was washed, decolorized in an ethanol solution containing 1% HCl, and then neutralized in 0.2% ammonia water. […]"}, "[5]": {"system": "bleomycin mouse model", "assay": "Pulmonary fibrosis in bleomycin model (Masson Trichrome staining)", "format": "in vivo", "protocol": "A systemic sclerosis model was established by dissolving Bleocin (Dong-A ST, 15 mg) in PBS and injecting it daily into the nape of mice. Raloxifene and bazedoxifene were injected subcutaneously for 21 days from 3 days after the injection of Bleocin (FIG. 8A). […] For Masson Trichrome staining, the slide was mordated overnight in the Bouin solution. After washing the slide, nuclei were stained for 10 minutes with Weigert Iron Hematoxylin. The cytoplasm was stained for 5 minutes with Biebrich scarlet-acid fuchsin. It was decolorized for 10 minutes with a solution in which phosphotungstic acid, phosphomolybdic acid, and DW were mixed at a ratio of 1:1:2. The collagenic fiber was stained by maintaining in a 2% aniline blue solution for 5 minutes. The slide was washed and subjected to a dehydration process while increasing the concentration of ethanol. The remaining ethanol was removed with xylene, and it was sealed using the VectaMount Permanent Mounting Medium."}, "[6]": {"system": "iPSC-F", "assay": "Wound healing assay in iPSC-F with TGF-b induced fibrosis", "format": "cell-based, human", "procedure": "The fibroblasts were plated on a 6-well plate and maintained and expanded. When the cells filled the plate, the plate was scratched, and fibrosis was induced by TGF-b and it was treated with the drug raloxifene."}, "[7]": {"system": "COL1A1, COL3A1, and ACTA2", "assay": "Fibrosis factor gene expression (qRT-PCR) in skin tissue of bleomycin model", "format": "in vivo, mouse", "conditions": "subcutaneous for 21 days", "procedure": "as §2\nECM gene expression was confirmed to verify the antifibrotic efficacy of raloxifene in the bleomycin model established in Example 8-1 above. After harvesting the skin tissue, the total RNA was extracted using Trizol, and cDNA was synthesized using the Revert Aid™ First Strand cDNA Synthesis kit. The qRT-PCR was performed on the synthesized cDNA using LightCycle 480 SYBR Green. The primers used are presented in [Table 4]. All of the experiments were repeated three times, and the threshold of the average cycle was used to calculate gene expression for averaging GAPDH as an internal control."}, "[8]": {"system": "α-SMA", "assay": "α-SMA expression by western blot in iPSC-derived fibroblasts", "format": "cell-based, human", "procedure": "In order to verify the antifibrotic effect of dactinomycin and raloxifene, which are the drugs selected through the above experiment, 1×10^6 fibroblasts were plated on a 100 mm culture dish, treated with the target drugs, and maintained and expanded. The protein was extracted using the RIPA buffer (Sigma) to analyze the expression of fibrosis factors, and the protein concentration was quantified by the Bradford assay. The same concentration of the protein was loaded on 10% SDS-PAGE, and the protein was transferred to polyvinylidene difluoride membranes. […] After washing with PBS containing 0.1% Tween-20, the peroxidase-linked IgG secondary antibody was incubated, and protein expression was measured using the ECL kit.\nIn order to confirm the reduction effect of the expression of the fibrosis factors of raloxifene, which is the drug selected in Example 6, raloxifene was treated by concentration, and the expression of α-SMA was confirmed. […] The protein was extracted using the RIPA buffer (Sigma) to analyze the expression of fibrosis factors, and the protein concentration was quantified by the Bradford assay. […] After washing with PBS containing 0.1% Tween-20, the peroxidase-linked IgG secondary antibody was incubated, and protein expression was measured using the ECL kit."}, "[9]": {"system": "3D fibroblast layer", "assay": "Thickness of 3D fibroblast layer with TGF-b induced fibrosis", "format": "cell-based, human", "description": "A 3D fibroblast layer was produced using the fibroblasts formed in Example 3 above. 2×10^5 fibroblasts after 28 days of differentiation were harvested and mixed with collagen 1 and plated on a 6-well-sized Transwell plate. It was replaced once every 2 days with Fibroblast Differentiation Culture Medium 1 for 5 days (FIG. 5F).\nIn order to confirm the effect of reducing the skin thickness by raloxifene, which is the drug selected in Example 6 above, fibrosis was induced in the 3D fibroblast layer with TGF-b, and it was treated with the drug raloxifene."}, "[10]": {"conditions": "raloxifene treated by concentration"}}, "note": "Starred links: 1 amine or outer side, 2 acyl side, 3 side chain; linkers in the order of their positions; H or OH if unused. Positions of bridges follow the written chain, without caps; N, C: chain ends. Non-standard residues stand in square brackets, D forms with d. Residues, ends and D or L forms follow the SMILES beside them. Chains are numbered I, II in the order given. Actinocin(9to1) = Cc1c2oc3c(C)ccc(C(=O)[*:1])c3nc-2c(C(=O)[*:2])c(N)c1=O; NMeV = CN[C@H](C(=O)O)C(C)C; Sar = CNCC(=O)O", "data": [{"molecule": "Cc1c2oc3c(C)ccc(C(=O)N[C@@H]4C(=O)N[C@H](C(C)C)C(=O)N5CCC[C@H]5C(=O)N(C)CC(=O)N(C)[C@@H](C(C)C)C(=O)O[C@@H]4C)c3nc-2c(C(=O)N[C@@H]2C(=O)N[C@H](C(C)C)C(=O)N3CCC[C@H]3C(=O)N(C)CC(=O)N(C)[C@@H](C(C)C)C(=O)O[C@@H]2C)c(N)c1=O", "note": "[dactinomycin] (I: T[dV]P[Sar][NMeV] / II: T[dV]P[Sar][NMeV]; ester I:1-I:C, II:1-II:C; linker I:N-II:N via Actinocin(9to1))", "values": [{"measurement": "cell proliferation", "setting": "[1]", "value": "decreased"}]}, {"molecule": "COC(=O)c1ccc2c(c1)NC(=O)/C2=C(\\Nc1ccc(N(C)C(=O)CN2CCN(C)CC2)cc1)c1ccccc1", "note": "[nintedanib]", "values": [{"measurement": "gene expression of ACTA2", "setting": "[2]", "value": "significantly reduced"}, {"measurement": "gene expression of COL1A1", "setting": "[2]", "value": "significantly reduced"}, {"measurement": "expression of the total collagen", "setting": "[3]", "value": "significantly reduced"}]}, {"molecule": "Cc1ccc(=O)n(-c2ccccc2)c1", "note": "[pirfenidone]", "values": [{"measurement": "gene expression of ACTA2", "setting": "[2]", "value": "significantly reduced"}, {"measurement": "gene expression of COL1A1", "setting": "[2]", "value": "significantly reduced"}, {"measurement": "expression of the total collagen", "setting": "[3]", "value": "significantly reduced"}]}, {"molecule": "O=C(c1ccc(OCCN2CCCCC2)cc1)c1c(-c2ccc(O)cc2)sc2cc(O)ccc12", "note": "[raloxifene]", "values": [{"measurement": "thickness of the skin tissue", "setting": "[4]", "value": "reduced"}, {"measurement": "lung fibrosis", "setting": "[5]", "value": "reduced"}, {"measurement": "wound healing, which was increased by TGF-b", "setting": "[6]; wound healing assay in iPSC-F", "value": "reduced"}, {"measurement": "proliferation of the cells, which was increased by TGF-b", "setting": "[6]; wound healing experiment, TGF-b induced", "value": "reduced"}, {"measurement": "expression of ACTA2", "setting": "[7]", "value": "reduced"}, {"measurement": "expression of COL1A1", "setting": "[7]", "value": "reduced"}, {"measurement": "expression of COL3A1", "setting": "[7]", "value": "reduced"}, {"measurement": "expression of α-SMA", "setting": "[8]; iPSC-F of patients with systemic sclerosis", "value": "effectively decreased the expression of α-SMA compared to dactinomycin"}, {"measurement": "expression of α-SMA, treated by concentration", "setting": "[8]; [10]", "value": "reduced as the treatment concentration of raloxifene was increased"}, {"measurement": "thickness of the 3D fibroblast layer, which was increased by TGF-b", "setting": "[9]", "value": "reduced"}, {"measurement": "expression of the total collagen, treated by concentration", "setting": "[3]; [10]", "value": "reduced as the treatment concentration of raloxifene was increased"}, {"measurement": "cell proliferation", "setting": "[1]", "value": "decreased"}]}]}
